This note sets out measurements from US9686993B2 (priority 2005, dated 2017).

Experiment [1] relates to Fusarium graminearum, Fusarium culmorum, or Fusarium avenaceum (mycotoxin production, DON). Particulars: in vivo.
The test system of experiment [2] is wheat scab (Fusarium graminearum, Fusarium culmorum, or Fusarium avenaceum). The format is in vivo. Particulars: for Medicinal Benefit Control Value: relative to no treatment; for Medicinal Benefit (number of infected berries in 1000 berries): sprayed once at GSs 65 to 71, no treatment 203.

Where two headings read alike, the source gives them in different places.

With `COC(=O)NC(=S)Nc1ccccc1NC(=S)NC(=O)OC` [Cercobin M, thiophanate-methyl], the “amount of mycotoxin production (DON concentration), result in words” value in experiment [1] is “inhibited in a dose-dependent manner”. The entries for the “Medicinal Benefit Control Value” in experiment [2] (250 g ai/ha), in experiment [2] (375 g ai/ha) and in experiment [2] (500 g ai/ha) were 6.4%, 7.4% and 11.3%, respectively. The “Medicinal Benefit (number of infected berries in 1000 berries)” value in experiment [2] (250 g ai/ha) is on record as 190; in experiment [2] (375 g ai/ha), 218; in experiment [2] (500 g ai/ha), 180. Moreover, the “medicinal benefit (number of infected berries in 1000 berries), result in words” value in experiment [2] (250 to 500 g ai/ha (combination 500 + 120 g ai/ha), versus no treatment) is “almost no difference”.
